Results from patent publication US20150099774A1, “Pyrido [3,4-C] [1,9] phenanthroline and 11, 12 dihydropyrido [3,4-C] [1,9] phenanthroline derivatives and the use thereof, particularly for treating cancer” (CHRISTIAN-ALBRECHTS-UNIVERSITAET ZU KIEL, priority 2012, published 2015).

Tests used:
Type in all cases: cell-based, human
[1] = system: Melanoma cell lines; assay: NCI in vitro anti-tumor screening, 1 μM, mean of melanoma lines; conditions: c = 1 μM
[2] = system: MOLT-4; assay: NCI in vitro anti-tumor screening, 1 μM, SRB; conditions: c = 1 μM; MOLT-4 (Leukemia); two days
[3] = system: MDA-MB-468; assay: NCI in vitro anti-tumor screening, 1 μM, SRB; conditions: c = 1 μM; MDA-MB-468 (Breast cancer); two days
[4] = system: MCF7; assay: NCI in vitro anti-tumor screening, 1 μM, SRB; conditions: c = 1 μM; MCF7 (Breast cancer); two days
[5] = system: UACC-257; assay: NCI in vitro anti-tumor screening, 1 μM, SRB; conditions: c = 1 μM; UACC-257 (Melanoma); two days
[6] = system: LOX IMVI; assay: NCI in vitro anti-tumor screening, 1 μM, SRB; conditions: c = 1 μM; LOX IMVI (Melanoma); two days
[7] = system: SR; assay: NCI in vitro anti-tumor screening, 1 μM, SRB; conditions: c = 1 μM; SR (Leukemia); two days
[8] = system: MDA-MB-231/ATCC; assay: NCI in vitro anti-tumor screening, 1 μM, SRB; conditions: c = 1 μM; MDA-MB-231/ATCC (Breast cancer); two days
[9] = system: M14; assay: NCI in vitro anti-tumor screening, 1 μM, SRB; conditions: c = 1 μM; M14 (Melanoma); two days
[10] = system: 60 tumor cell lines; assay: NCI in vitro anti-tumor screening, 1 μM, all 60 cell lines; conditions: c = 1 μM; for growth inhibitory effect (in words): leukemia, melanoma, breast cancer lines of Tables I and II
[11] = system: T-47D; assay: NCI in vitro anti-tumor screening, 1 μM, SRB; conditions: c = 1 μM; T-47D (Breast cancer); two days
[12] = system: SK-MEL-28; assay: NCI in vitro anti-tumor screening, 1 μM, SRB; conditions: c = 1 μM; SK-MEL-28 (Melanoma); two days
[13] = system: MALME-3M; assay: NCI in vitro anti-tumor screening, 1 μM, SRB; conditions: c = 1 μM; MALME-3M (Melanoma); two days
[14] = system: UACC-62; assay: NCI in vitro anti-tumor screening, 1 μM, SRB; conditions: c = 1 μM; UACC-62 (Melanoma); two days
[15] = system: CCRF-CEM; assay: NCI in vitro anti-tumor screening, 1 μM, SRB; conditions: c = 1 μM; CCRF-CEM (Leukemia); two days
[16] = system: HL-60(TB); assay: NCI in vitro anti-tumor screening, 1 μM, SRB; conditions: c = 1 μM; HL-60(TB) (Leukemia); two days
[17] = system: K-562; assay: NCI in vitro anti-tumor screening, 1 μM, SRB; conditions: c = 1 μM; K-562 (Leukemia); two days
[18] = system: SK-MEL-5; assay: NCI in vitro anti-tumor screening, 1 μM, SRB; conditions: c = 1 μM; SK-MEL-5 (Melanoma); two days
[19] = system: BT-549; assay: NCI in vitro anti-tumor screening, 1 μM, SRB; conditions: c = 1 μM; BT-549 (Breast cancer); two days
[20] = system: SK-MEL-2; assay: NCI in vitro anti-tumor screening, 1 μM, SRB; conditions: c = 1 μM; SK-MEL-2 (Melanoma); two days
[21] = system: RPMI-8226; assay: NCI in vitro anti-tumor screening, 1 μM, SRB; conditions: c = 1 μM; RPMI-8226 (Leukemia); two days
[22] = system: Leukemia cell lines; assay: NCI in vitro anti-tumor screening, 1 μM, mean of leukemia lines; conditions: c = 1 μM
[23] = system: Breast cancer cell lines; assay: NCI in vitro anti-tumor screening, 1 μM, mean of breast cancer lines; conditions: c = 1 μM
[24] = system: HS-578T; assay: NCI in vitro anti-tumor screening, 1 μM, SRB; conditions: c = 1 μM; HS-578T (Breast cancer); two days
[25] = system: MDA-MB-435; assay: NCI in vitro anti-tumor screening, 1 μM, SRB; conditions: c = 1 μM; MDA-MB-435 (Melanoma); two days
[26] = system: 60 tumor cell lines; assay: NCI 5 dose assay, dose-response (GI50, MG_MID); conditions: for GI50: Homo sapiens, calculated from mean graph midpoint; for GI50 / MG_MID (mean-graph midpoint, mean of the logarithms GI50 values): all 60 cell lines; for MG_MID (mean-graph midpoint, mean of the logarithms GI50 values): 5 concentrations
Text: It has been shown in the experiments carried out according to the present invention that the above-described phenanthroline derivates have antitumoral properties. Due to their structural similarity it is to be assumed that they have also antimicrobial, antifungal, antiviral and anti-inflammatory properties like the benzo[c]phenanthridines. For investigating the pharmacological properties the compounds of general formulas I and II, as well as compounds of the substance class III were investigated in an “in vitro anti-tumor screening” of the National Cancer Institute (NCI), Bethesda, Md., USA. 60 different human pathogenic tumor cell lines were tested, which originate from nine cancer types (leukemia, non-small cell lung carcinoma, colon cancer, CNS cancer, melanoma, ovarian cancer, renal cancer, prostate cancer, breast cancer). For determining the efficacy, the tumor cells are exposed to the compounds for two days and thereafter the growth inhibition is indirectly determined through the determination of the protein biomass with sulforhodamine B (SRB). Untreated cultures serve as reference.
Furthermore, it can be seen from tables I and II that the here tested phenanthrolin derivatives according to the present invention have selectivities for certain tumor types. The most marked growth inhibitory effect is for tumor cells of leukemia. Furthermore, a degree of selectivity for tumor cells of melanoma and mamma carcinoma (breast cancer) can be seen. […] The GI50 (growth inhibition 50%) describes here the concentration of the test substance required for inhibiting cell growth by 50%. […] Develop. Res., 34, (1995) 91-109,]
Exemplary for 6-amino-11-(3-bromophenyl)-11,12-dihydropyrido[3,4-c][1,9] phenanthrol are the dose-response curves shown in FIGS. 1 to 9. The nine different Figures include the various types of cancer. The percentage of growth, depending on the concentration of the compound is plotted (as log10 of the molar concentrations). The individual curves for each type of cancer are different cell lines of this type of cancer, which appear as legends in their usual abbreviations. Horizontal lines in the Figures denote percent growth +100, +50, 0, −50, −100. 100% growth means e.g. no difference to growth after two days without added substance.

Row | Compound | Percentage cell growth, Arithmetic mean [1] [%] | Percentage cell growth [2] [%] | Percentage cell growth [3] [%] | Percentage cell growth [4] [%] | Percentage cell growth [5] [%] | Percentage cell growth [6] [%] | Percentage cell growth [9] [%] | Percentage cell growth, Arithmetic mean of all 60 cell lines [10] [%] | Percentage cell growth [11] [%] | Percentage cell growth [12] [%] | Percentage cell growth [13] [%] | Percentage cell growth [16] [%] | Percentage cell growth [17] [%] | Percentage cell growth [18] [%] | Percentage cell growth [19] [%] | Percentage cell growth [20] [%] | Percentage cell growth [21] [%] | Percentage cell growth, Arithmetic mean [22] [%] | GI50 [26] [µM] | MG_MID (mean-graph midpoint, mean of the logarithms GI50 values) [26] | other results
1 | Nc1nc2c3cnccc3cc(-c3ccco3)c2c2ccncc12 | 45.5 | −0.9 | 35.6 | 25.0 | 69.8 | 2.3 | 37.0 | 39.1 | 48.4 | 42.4 | 59.7 | 13.9 | 51.6 | 20.0 | 16.2 | 91.8 | 62.7 | 24.6 |  |  | Percentage cell growth [7]: 7.8%; Percentage cell growth [8]: 74.9%; growth inhibitory effect (in words) [10]: good cytotoxic effects; Percentage cell growth [14]: 41.0%; Percentage cell growth [15]: 12.4%; Percentage cell growth, Arithmetic mean [23]: 40.0%
2 | COc1cccc(-c2cc3ccncc3c3nc(N)c4cnccc4c23)c1OC | 95.2 | 90.1 | 81.5 | 89.9 | 126.3 | 89.3 | 94.8 | 98.0 | 97.4 | 119.5 | 123.8 | 118.7 | 88.8 | 86.3 | 95.0 | 117.3 | 96.8 | 92.1 |  |  | Percentage cell growth [7]: 83.5%; Percentage cell growth [8]: 90.8%; growth inhibitory effect (in words) [10]: disadvantageous; Percentage cell growth [14]: 99.1%; Percentage cell growth [15]: 74.9%; Percentage cell growth [24]: 90.5%; Percentage cell growth, Arithmetic mean [23]: 90.9%
3 | Nc1nc2c(c3ccncc13)C(c1ccc(Br)cc1)Cc1ccncc1-2 (centres unmarked) | 97.4 | 75.3 | 87.6 | 83.4 | 107.8 | 95.7 | 93.4 | 90.5 | 84.6 | 112.5 | 98.2 | 70.3 | 84.9 | 86.2 | 67.8 | 94.1 | 64.7 | 73.8 |  |  | Percentage cell growth [25]: 107%; Percentage cell growth [8]: 80.6%; Percentage cell growth [14]: 81.7%; Percentage cell growth, Arithmetic mean [23]: 80.8%
4 | Nc1cc2c(c3cnccc13)N(c1ccc(Cl)c(Cl)c1)Cc1cnccc1-2 [P26, 6-amino-11-(3,4-di-chlorophenyl)-11,12-dihydropyrido-[3,4-c][1,9]phenanthroline] |  |  |  |  |  |  |  |  |  |  |  |  |  |  |  |  |  |  | 6.02 | −5.22 | 
5 | COc1cc2c(ccc3c4cc(OC)c(OC)cc4c[n+](C)c23)cc1O [Fagaronine, reference compound] |  |  |  |  |  |  |  |  |  |  |  |  |  |  |  |  |  |  | 9.48 | −5.00 | 
6 | O=C1CC2=C(c3cnccc31)N(c1cccc(Br)c1)Cc1cnccc12 [P5-O, 11-(3-bromophenyl)-6-oxo-5,6,11,12-tetrahydropyrido[3,4-c][1,9]phenanthroline] |  |  |  |  |  |  |  |  |  |  |  |  |  |  |  |  |  |  | 8.51 | −5.07 | 
7 | Nc1cc2c(c3cnccc13)N(c1cccc(Br)c1)Cc1cnccc1-2 [P5, 6-amino-11-(3-bromophenyl)-11,12-dihydro-pyrido-[3,4-c][1,9]phenanthroline] |  |  |  |  |  |  |  |  |  |  |  |  |  |  |  |  |  |  | 2.69 | −5.57 | percent growth versus concentration (dose-response curves, FIGS. 1 to 9) ([26]; nine cancer types, 5 dose assay): with increasing concentrations of the substance, the percent growth decreases
8 | Nc1cc2c(c3cnccc13)NCc1cnccc1-2 [P4, 6-amino-11,12-dihydropyrido[3,4-c][1,9]phenanthroline] |  |  |  |  |  |  |  |  |  |  |  |  |  |  |  |  |  |  | 8.13 | −5.09 | 
9 | Nc1cc2c(c3cnccc13)N(c1cccc(Cl)c1)Cc1cnccc1-2 [P16, 6-amino-11-(3-chlorophenyl)-11,12 dihydropyrido-[3,4-c][1,9]phenanthroline] |  |  |  |  |  |  |  |  |  |  |  |  |  |  |  |  |  |  | 3.8 | −5.42 | 
10 | COc1cc(-c2cc3ccncc3c3nc(N)c4cnccc4c23)cc(OC)c1OC | 22.1 | −8.9 | −23.6 | 22.8 | 30.9 | −30.4 | 9.5 | 16.8 | 36 | 41.5 | 35.5 | −0.9 | 29.9 | 2.2 | 8.31 | 65.3 | 33.5 | 12.3 |  |  | Percentage cell growth [7]: 13.1%; growth inhibitory effect (in words) [10]: best results; Percentage cell growth [15]: 7.2%; Percentage cell growth [24]: −2.5%; Percentage cell growth, Arithmetic mean [23]: 8.2%
